Consider two molecules from paper PMC6757289, “Design and Characterization of SGK3-PROTAC1, an Isoform Specific SGK3 Kinase PROTAC Degrader” (ACS Chemical Biology, 2019).

This experiment has as its system mTORC1-mediated phosphorylation of S6K1 at Thr389. The experiment is described as follows: mTORC1 signaling in CAMA-1 cells treated with PI3K or Akt inhibitor, immunoblot. The experiment is classed as cell-based. The settings on record: CAMA-1, 5 days 1 μM GDC0941 or AZD5363; 0.3 μM. The procedure: We therefore aimed to investigate the effect that degradation of SGK3 would have on this resistance pathway and whether SGK3-PROTAC1 treatment could reverse inhibitor resistance. To investigate the effect of SGK3-PROTAC1 under these conditions, we treated CAMA-1 (Figure 5A,C) or ZR-75-1 (Figure 5B,D) for 5 days with either a class 1A PI3K inhibitor (GDC0941 1 μM;[38]Figure 5A,B) or an Akt inhibitor (AZD5363, 1 μM;[39]Figure 5C,D). These cells were treated with SGK3-PROTAC1 or cisSGK3-PROTAC1 (0.3 μM) for either 5 days in combination with the inhibitors or 8 h before lysis.
Figure 5 SGK3-PROTAC1-mediated degradation of SGK3 inhibits Akt-independent activation of mTORC1 in cancer cell lines treated with Akt or PI3K inhibitors. CAMA-1 (A, C) or ZR-75-1 (B, D) were treated for 5 days with 1 μM GDC0941 (A, B) or 1 μM AZD5363 (C, D). […]
All cell treatments were carried out as described in figure legends, to a final DMSO concentration of 0.1% (v/v). Lysates were quantified. […] Lysate concentration was quantified by Bradford Assay, and 10 μg of lysate was loaded in the LDS sample buffer for SDS-PAGE electrophoresis on Novex 4–12% Bis–Tris gels. […] The signal was produced with near-infrared secondary antibodies and detected using a Licor Biosciences Odyssey System, and the signal was quantified in Image Studio Lite.
(In general: Immunoblotting shows a protein as a band on a membrane.)

Consider `Cc1ccc(F)c(S(=O)(=O)Nc2ccc(-c3nc(OC[C@H]4CN(CCCCCCOCCOCCOCC(=O)N[C@H](C(=O)N5C[C@H](O)C[C@H]5C(=O)NCc5ccc(-c6scnc6C)cc5)C(C)(C)C)CCO4)c4cn[nH]c4n3)cc2)c1` [SGK3-PROTAC1], for which the “phosphorylation of S6K1 at Thr389” value was “suppressed”.

On to `Cc1ccc(F)c(S(=O)(=O)Nc2ccc(-c3nc(OC[C@H]4CN(CCCCCCOCCOCCOCC(=O)N[C@H](C(=O)N5C[C@@H](O)C[C@H]5C(=O)NCc5ccc(-c6scnc6C)cc5)C(C)(C)C)CCO4)c4cn[nH]c4n3)cc2)c1` [cisSGK3-PROTAC1], for which the “phosphorylation of S6K1 at Thr389” value is listed as “no significant effect”.
